One experiment has as its system TNF-α. Put plainly: IC50 hWB (TNF-α release assay). Conditions: Homo sapiens. It counts as cell-based. On the procedure: Blood was obtained from healthy volunteers by venipuncture using sodium heparin as an anti-coagulant. Peripheral blood mononuclear cells (PBMCs) were isolated using Lymphocyte Separation Medium (ICN) according to manufacturers specifications. Isolated PBMCs were washed 3 times with FIBSS and diluted to a density of 2×10^6 cells/mL in RPMI+5% autologous human serum. 50 μL of the serial dilutions of inhibitor were added to wells of a 96-well tissue culture plate followed by addition of 100 μL of PBMCs and then 50 μL of RPMI complete medium containing 400 ng/mL LPS. A control well of cells without compound but with LPS (maximal stimulation control) and one without compound and without LPS (background control) were included in each titration. The cells were incubated for 16 hours in a humidified incubator at 37° C., 5% CO2. Supernatants were then harvested and TNF-α levels were quantified by immunoassay using commercial reagents (R&D, Inc).

The target in the next experiment is T1, p38α (Homo sapiens, UniProt Q16539).
T1 construct: purchased Millipore
As to the kind of experiment: p38 kinase assay, p38-α with peptide substrate (Caliper LabChip). It counts as biochemical. Here is the method:
Alternatively, p38 kinase assays were performed in a reaction volume of 70 μL in a 384-well plate, at 30° for […] under the following conditions: 50 mM Hepes, pH 7.4, 10 mM MgCl2, 1 mg/ml FA Free BSA, 1 mM DTT, 10 μM ATP, 10 μM p38 peptide [Caliper Life Sciences FL-Peptide 8 (5-FAM-IPTSPITTTYFFFKKK-COOH)] and 5.7 nM p38-α (Millipore), or 14.3 nM unactivated MAPKAP kinase-2, 0.18 nM p38-α (Millipore) and 2 uM RSK peptide [Caliper Life Sciences FL-Peptide 11 (5-FAM-KKLNRTLSVA-COOH)]. Serial dilutions of compounds were added to each reaction in 700 nL DMSO. 700 nL of DMSO was added to the control wells of the reaction plate as the no inhibitor control for each inhibitor titration. The reaction was terminated by the addition of 15 μL of a 100 mM EDTA. Product formation was analyzed using the Caliper LabChip 3000. The Separation buffer contained 100 mM HEPES pH 7.5, 0.015% Brij-35, 2.5% Coating Reagent #3 (Caliper Life Sciences) and 10 mM EDTA. Calculation of the substrate product ratios are performed using the HTS Well Analyzer software provided by Caliper Life Sciences and the percent inhibition at each compound concentration is determined.

T1 sequence (Q16539 whole entry): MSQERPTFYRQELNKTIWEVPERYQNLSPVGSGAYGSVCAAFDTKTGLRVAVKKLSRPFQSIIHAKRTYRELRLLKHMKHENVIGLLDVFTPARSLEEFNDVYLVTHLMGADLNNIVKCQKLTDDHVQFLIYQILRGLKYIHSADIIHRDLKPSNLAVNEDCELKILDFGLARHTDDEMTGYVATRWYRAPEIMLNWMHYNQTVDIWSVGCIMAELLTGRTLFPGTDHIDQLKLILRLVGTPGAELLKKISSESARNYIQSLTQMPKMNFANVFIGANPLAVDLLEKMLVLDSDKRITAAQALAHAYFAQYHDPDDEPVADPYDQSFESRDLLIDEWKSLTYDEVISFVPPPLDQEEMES

Take `O=C(c1c(F)cc(F)cc1F)c1c[nH]c2c(=O)n(Cc3nc4ccccc4[nH]3)ccc12` [Example 1, 6-(1H-benzimidazol-2-ylmethyl)-3-(2,4,6-trifluorobenzoyl)-1,6-dihydro-7H-pyrrolo[2,3-c]pyridin-7-one]: the results for the IC50 in the experiment on TNF-α and on p38α were 461 nM and 45 nM, respectively.

Turning to `O=C(c1c(F)cc(F)cc1F)c1c[nH]c2c(=O)n(Cc3nc4cccc(F)c4[nH]3)ccc12` [Example 2, 6-[(4-fluoro-1H-benzimidazol-2-yl)methyl]-3-(2,4,6-trifluorobenzoyl)-1,6-dihydro-7H-pyrrolo[2,3-c]pyridin-7-one], the IC50 with TNF-α came out at 128 nM; against p38α, 27 nM.

As for `O=C(c1c(F)cc(F)cc1F)c1c[nH]c2c(=O)n(Cc3nc4ccc(F)c(F)c4[nH]3)ccc12` [Example 3, 6-[(4,5-difluoro-1H-benzimidazol-2-yl)methyl]-3-(2,4,6-trifluorobenzoyl)-1,6-dihydro-7H-pyrrolo[2,3-c]pyridin-7-one], the IC50 in the experiment with TNF-α was 128 nM; at p38α it was 23 nM.

For the compound `O=C(c1c(F)cc(F)cc1F)c1c[nH]c2c(=O)n(Cc3cn4cccnc4n3)ccc12` [Example 5, 6-(imidazo[1,2-a]pyrimidin-2-ylmethyl)-3-(2,4,6-trifluorobenzoyl)-1,6-dihydro-7H-pyrrolo[2,3-c]pyridin-7-one], the IC50 in the experiment with TNF-α is 88 nM; on p38α it was 5.3 nM.

With `O=C(c1c(F)cc(F)cc1F)c1c[nH]c2c(=O)n(Cc3nc4cccnc4[nH]3)ccc12` [Example 6, 6-(3H-imidazo[4,5-b]pyridin-2-ylmethyl)-3-(2,4,6-trifluorobenzoyl)-1,6-dihydro-7H-pyrrolo[2,3-c]pyridin-7-one], the IC50 in the experiment on TNF-α worked out at 84 nM; against p38α it was 18 nM.

For the compound `O=C(c1c(F)cccc1F)c1c[nH]c2c(=O)n(Cc3nc4cccnc4[nH]3)ccc12` [Example 7, 3-(2,6-difluorobenzoyl)-6-(3H-imidazo[4,5-b]pyridin-2-ylmethyl)-1,6-dihydro-7H-pyrrolo[2,3-c]pyridin-7-one], the IC50 in the experiment on TNF-α was found to be 248 nM; on p38α, 38 nM.

With `O=C(c1c(F)cc(F)cc1F)c1c[nH]c2c(=O)n(Cc3nc4ncc(Br)cc4[nH]3)ccc12` [Example 8, 6-[(6-bromo-3H-imidazo[4,5-b]pyridin-2-yl)methyl]-3-(2,4,6-trifluorobenzoyl)-1,6-dihydro-7H-pyrrolo[2,3-c]pyridin-7-one], the figures for the IC50 in the experiment with TNF-α and at p38α were 253 nM and 24 nM, respectively.

As for `Cc1ccc2nc(Cn3ccc4c(C(=O)c5c(F)cccc5F)c[nH]c4c3=O)cn2n1` [Example 9, 3-(2,6-difluorobenzoyl)-6-[(6-methylimidazo[1,2-b]pyridazin-2-yl)methyl]-1,6-dihydro-7H-pyrrolo[2,3-c]pyridin-7-one], the results for the IC50 in the experiment with TNF-α and on p38α were 217 nM and 16 nM, respectively.

Consider `O=C(c1c(F)cc(F)cc1F)c1c[nH]c2c(=O)n(Cc3nc4ccccc4o3)ccc12` [Example 10, 6-(1,3-benzoxazol-2-ylmethyl)-3-(2,4,6-trifluorobenzoyl)-1,6-dihydro-7H-pyrrolo[2,3-c]pyridin-7-one], for which the IC50 was found to be 1370 nM in the experiment with TNF-α and 40 nM at p38α.

As to `Cc1cnc2nc(Cn3ccc4c(C(=O)c5c(F)cc(F)cc5F)c[nH]c4c3=O)[nH]c2c1` [Example 11, 6-[(6-methyl-3H-imidazo[4,5-b]pyridin-2-yl)methyl]-3-(2,4,6-trifluorobenzoyl)-1,6-dihydro-7 H-pyrrolo[2,3-c]pyridin-7-one], the values for the IC50 with TNF-α and on p38α were 39 nM and 14 nM, respectively.

Take `Cc1cnc2nc(Cn3ccc4c(C(=O)c5c(F)cccc5F)c[nH]c4c3=O)[nH]c2c1` [Example 12, 3-(2,6-difluorobenzoyl)-6-[(6-methyl-3H-imidazo[4,5-b]pyridin-2-yl)methyl]-1,6-dihydro-7H-pyrrolo[2,3-c]pyridin-7-one]: the half-inhibitory concentration (IC50) was found to be 142 nM with TNF-α and 25 nM at p38α.

In the case of `O=C(c1c(F)cncc1F)c1c[nH]c2c(=O)n(Cc3cc4ccccn4n3)ccc12` [Example 13, 3-(3,5-difluoroisonicotinoyl)-6-(pyrazolo[1,5-c]pyridin-2-ylmethyl)-1,6-dihydro-7H-pyrrolo[2,3-c]pyridin-7-one], the IC50 with TNF-α came to 1520 nM; against p38α, 29 nM.

In the case of `Cc1cc(F)c(C(=O)c2c[nH]c3c(=O)n(Cc4cc5ccccn5n4)ccc23)c(F)c1` [Example 14, 3-(2,6-difluoro-4-methylbenzoyl)-6-(pyrazolo[1,5-a]pyridin-2-ylmethyl)-1,6-dihydro-7H-pyrrolo[2,3-c]pyridin-7-one], the IC50 in the experiment with TNF-α was 486 nM; against p38α, 22 nM.

Take `O=C(NCC(F)(F)F)c1cnc2nc(Cn3ccc4c(C(=O)c5c(F)cc(F)cc5F)c[nH]c4c3=O)[nH]c2c1` [Example 15, 2-{[7-oxo-3-(2,4,6-trifluorobenzoyl)-1,7-dihydro-6H-pyrrolo[2,3-c]pyridin-6-yl]methyl}-N-(2,2,2-trifluoroethyl)-3H-imidazo[4,5-b]pyridine-6-carboxamide]: the values for the IC50 in the experiment with TNF-α and on p38α were 103 nM and 8.6 nM, respectively.

In the case of `O=C(c1c(F)cc(F)cc1F)c1c[nH]c2c(=O)n(Cc3nc4ncc(C(=O)N5CCOCC5)cc4[nH]3)ccc12` [Example 16, 6-{[6-(morpholin-4-ylcarbonyl)-1H-imidazo[4,5-b]pyridin-2-yl]methyl}-3-(2,4,6-trifluorobenzoyl)-1,6-dihydro-7H-pyrrolo[2,3-c]pyridin-7-one], the values for the IC50 with TNF-α and against p38α were 217 nM and 19 nM, respectively.

Regarding `O=C(c1c(F)cc(F)cc1F)c1c[nH]c2c(=O)n(Cc3nc4ccncc4[nH]3)ccc12` [Example 17, 6-(3H-imidazo[4,5-c]pyridin-2-ylmethyl)-3-(2,4,6-trifluorobenzoyl)-1,6-dihydro-7H-pyrrolo[2,3-c]pyridin-7-one], the IC50 against p38α is 13 nM.

With `O=C(c1c(F)cc(F)cc1F)c1c[nH]c2c(=O)n(Cc3cn4ccc(C(F)(F)F)cc4n3)ccc12` [Example 18, 3-(2,4,6-trifluorobenzoyl)-6-{[(7-trifluoromethyl)imidazo[1,2-c]pyridin-2-yl]methyl}-1,6-dihydro-7H-pyrrolo[2,3-c]pyridin-7-one], the IC50 turned out to be 201 nM with TNF-α and 12 nM on p38α.

Regarding `O=C(c1c(F)cc(F)cc1F)c1c[nH]c2c(=O)n(Cc3nc4cc(C(F)(F)F)cnc4[nH]3)ccc12` [Example 19, 3-(2,4,6-trifluorobenzoyl)-6-{[6-(trifluoromethyl)-3H-imidazo[4,5-b]pyridin-2-yl]methyl}-1,6-dihydro-7H-pyrrolo[2,3-c]pyridin-7-one], the IC50 was 365 nM in the experiment with TNF-α and 31 nM on p38α.

For the compound `O=C(c1ccc(F)cc1F)c1c[nH]c2c(=O)n(Cc3cn4ccccc4n3)ccc12` [Example 20, 3-(2,4-difluorobenzoyl)-6-(imidazo[1,2-a]pyridin-2-ylmethyl)-1,6-dihydro-7H-pyrrolo[2,3-c]pyridin-7-one], the IC50 in the experiment on TNF-α amounted to 162 nM; against p38α, 18 nM.

In turn, `NC(=O)c1ccn2cc(Cn3ccc4c(C(=O)c5c(F)cc(F)cc5F)c[nH]c4c3=O)nc2c1` [Example 22, 2-{[7-oxo-3-(2,4,6-trifluorobenzoyl)-1,7-dihydro-6H-pyrrolo[2,3-c]pyridin-6-yl]methyl}imidazo[1,2-a]pyridine-7-carboxamide] gave an IC50 against p38α of 1.3 nM.

Regarding `O=C(O)c1ccn2cc(Cn3ccc4c(C(=O)c5c(F)cc(F)cc5F)c[nH]c4c3=O)nc2c1` [Example 23, 2-{[7-oxo-3-(2,4,6-trifluorobenzoyl)-1,7-dihydro-6H-pyrrolo[2,3-c]pyridin-6-yl]methyl}imidazo[1,2-a]pyridine-7-carboxylic acid], the midpoint of inhibition at p38α, the IC50, lay at 2 nM.

Consider `CNC(=O)c1ccn2cc(Cn3ccc4c(C(=O)c5c(F)cc(F)cc5F)c[nH]c4c3=O)nc2c1` [Example 25, N-methyl-2-{[7-oxo-3-(2,4,6-trifluorobenzoyl)-1,7-dihydro-6H-pyrrolo-[2,3-c]pyridin-6-yl]methyl}-imidazo[1,2-c]pyridine-7-carboxamide], for which the concentration for half-maximal inhibition (IC50) on p38α was determined as 1 nM.

Turning to `CNC(=O)c1ccc2nc(Cn3ccc4c(C(=O)c5c(F)cc(F)cc5F)c[nH]c4c3=O)[nH]c2c1` [Example 27, N-methyl-2-{[7-oxo-3-(2,4,6-trifluorobenzoyl)-1,7-dihydro-6H-pyrrolo[2,3-c]pyridin-6-yl]methyl}-1H-benzimidazole-5-carboxamide], the IC50 against p38α was found to be 3 nM.

For `O=c1c2[nH]cc(C(O)c3ccc(F)cc3F)c2ccn1Cc1cn2ccccc2n1` (stereo not drawn) [Example 28, 3-[(2,4-difluorophenyl)(hydroxy)methyl]-6-(imidazo[1,2-a]pyridin-2-ylmethyl)-1,6-dihydro-7H-pyrrolo[2,3-c]pyridin-7-one], at p38α, the IC50 turned out to be 249 nM.

The record behind these values is patent US20110105430A1, “PYRROLO [2,3-C] PYRIDINE DERIVATIVES AS P38 KINEASE INHIBITING AGENTS” (priority 2008, published 2011).
